Reference: ChEMBL document CHEMBL5465560, “Selectivity Literature for EUbOPEN Chemogenomic Library” (2024)

Tests used:
[1] = biological target: E3 ubiquitin-protein ligase TRIM33 (Homo sapiens) (UniProt Q9UPN9); assay: Selectivity interaction (Human bromodomain panel (DSF assay)) EUB0000233b TRIM33
SRSF protein kinase 1 = SRSF protein kinase 1 (Homo sapiens, UniProt Q96SB4); assay: Selectivity interaction (Kinase panel (Z-LYTE Assay)) EUB0001632a SRPK1; conditions: at 10 µM
[2] = biological target: T1, Serine/threonine-protein kinase ULK1 (Homo sapiens) (UniProt O75385); assay: Selectivity interaction (LanthaScreen Eu Kinase Binding Assay) EUB0001632a ULK1; conditions: at 10 µM
T1 sequence (whole entry): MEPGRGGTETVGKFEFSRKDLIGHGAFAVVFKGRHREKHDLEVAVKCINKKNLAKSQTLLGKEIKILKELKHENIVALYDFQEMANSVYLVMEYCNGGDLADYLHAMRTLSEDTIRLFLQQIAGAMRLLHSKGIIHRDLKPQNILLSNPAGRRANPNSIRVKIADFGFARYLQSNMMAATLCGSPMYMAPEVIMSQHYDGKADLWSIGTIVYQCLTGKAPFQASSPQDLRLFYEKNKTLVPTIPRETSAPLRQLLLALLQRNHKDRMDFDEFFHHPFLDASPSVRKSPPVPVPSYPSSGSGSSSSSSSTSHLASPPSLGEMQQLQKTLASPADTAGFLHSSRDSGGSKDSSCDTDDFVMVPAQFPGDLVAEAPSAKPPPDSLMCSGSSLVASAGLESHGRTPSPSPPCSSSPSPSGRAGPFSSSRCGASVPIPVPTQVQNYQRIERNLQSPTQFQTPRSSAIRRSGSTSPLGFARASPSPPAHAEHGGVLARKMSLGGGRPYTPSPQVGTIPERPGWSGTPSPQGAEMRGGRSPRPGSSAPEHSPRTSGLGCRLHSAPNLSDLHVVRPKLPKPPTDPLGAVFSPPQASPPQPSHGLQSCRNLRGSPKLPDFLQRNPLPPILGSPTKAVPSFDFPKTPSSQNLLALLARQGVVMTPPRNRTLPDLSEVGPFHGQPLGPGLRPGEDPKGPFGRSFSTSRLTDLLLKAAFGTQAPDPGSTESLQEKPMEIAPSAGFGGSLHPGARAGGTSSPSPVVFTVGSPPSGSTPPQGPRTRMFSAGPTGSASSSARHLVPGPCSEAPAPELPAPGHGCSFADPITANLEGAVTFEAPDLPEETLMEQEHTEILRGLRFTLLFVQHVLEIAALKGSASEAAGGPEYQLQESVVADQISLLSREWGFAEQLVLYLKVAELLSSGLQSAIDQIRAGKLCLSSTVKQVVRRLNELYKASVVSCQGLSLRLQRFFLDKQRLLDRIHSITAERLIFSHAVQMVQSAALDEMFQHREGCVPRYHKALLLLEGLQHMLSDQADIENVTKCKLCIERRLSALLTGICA

[3] = biological target: T2, Histone-lysine N-methyltransferase SUV39H1 (Homo sapiens) (UniProt O43463); assay: Selectivity interaction (Transferase panel (protein, RNA, and DNA methyltransferases. and EP300 (acetyltransferase))) EUB0000270b SUV39H1
T2 sequence (whole entry): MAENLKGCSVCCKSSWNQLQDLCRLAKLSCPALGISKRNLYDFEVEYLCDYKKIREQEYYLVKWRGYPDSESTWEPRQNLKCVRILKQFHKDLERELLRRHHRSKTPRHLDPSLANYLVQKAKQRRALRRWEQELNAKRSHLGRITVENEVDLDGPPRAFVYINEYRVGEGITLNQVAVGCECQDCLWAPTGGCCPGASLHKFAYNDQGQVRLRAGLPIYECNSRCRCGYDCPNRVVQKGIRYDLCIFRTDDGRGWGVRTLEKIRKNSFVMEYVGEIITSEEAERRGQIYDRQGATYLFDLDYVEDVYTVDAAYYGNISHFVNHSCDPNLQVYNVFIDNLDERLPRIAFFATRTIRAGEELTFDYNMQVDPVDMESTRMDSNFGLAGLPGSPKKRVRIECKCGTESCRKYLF

[4] = biological target: Histamine H2 receptor (Homo sapiens) (UniProt P25021); assay: Selectivity interaction (Panel of non-epigenetic targets (kinases, GPCRs, ion channels, and transporters, Eurofins) ) EUB0000271b HRH2; conditions: at 1 µM
[5] = biological target: Phosphatidylinositol 4-phosphate 5-kinase type-1 alpha (Homo sapiens) (UniProt Q99755); assay: Selectivity interaction (KinomeScan (DiscoverX)) EUB0001868a PIP5K1A; conditions: at 1 µM
[6] = biological target: RAC-beta serine/threonine-protein kinase (Homo sapiens) (UniProt P31751); assay: Selectivity interaction (ProQinase) EUB0000171b AKT2
[7] = biological target: Serine/threonine-protein kinase PRP4 homolog (Homo sapiens) (UniProt Q13523); assay: Selectivity interaction (KinomeScan (DiscoverX)) EUB0001619a PRPF4; conditions: at 1 µM
[8] = biological target: T3, Serine/threonine-protein kinase Nek9 (Homo sapiens) (UniProt Q8TD19); assay: Selectivity interaction (KinomeScan (DiscoverX)) EUB0000607a NEK9; conditions: at 10 µM
T3 sequence (whole entry): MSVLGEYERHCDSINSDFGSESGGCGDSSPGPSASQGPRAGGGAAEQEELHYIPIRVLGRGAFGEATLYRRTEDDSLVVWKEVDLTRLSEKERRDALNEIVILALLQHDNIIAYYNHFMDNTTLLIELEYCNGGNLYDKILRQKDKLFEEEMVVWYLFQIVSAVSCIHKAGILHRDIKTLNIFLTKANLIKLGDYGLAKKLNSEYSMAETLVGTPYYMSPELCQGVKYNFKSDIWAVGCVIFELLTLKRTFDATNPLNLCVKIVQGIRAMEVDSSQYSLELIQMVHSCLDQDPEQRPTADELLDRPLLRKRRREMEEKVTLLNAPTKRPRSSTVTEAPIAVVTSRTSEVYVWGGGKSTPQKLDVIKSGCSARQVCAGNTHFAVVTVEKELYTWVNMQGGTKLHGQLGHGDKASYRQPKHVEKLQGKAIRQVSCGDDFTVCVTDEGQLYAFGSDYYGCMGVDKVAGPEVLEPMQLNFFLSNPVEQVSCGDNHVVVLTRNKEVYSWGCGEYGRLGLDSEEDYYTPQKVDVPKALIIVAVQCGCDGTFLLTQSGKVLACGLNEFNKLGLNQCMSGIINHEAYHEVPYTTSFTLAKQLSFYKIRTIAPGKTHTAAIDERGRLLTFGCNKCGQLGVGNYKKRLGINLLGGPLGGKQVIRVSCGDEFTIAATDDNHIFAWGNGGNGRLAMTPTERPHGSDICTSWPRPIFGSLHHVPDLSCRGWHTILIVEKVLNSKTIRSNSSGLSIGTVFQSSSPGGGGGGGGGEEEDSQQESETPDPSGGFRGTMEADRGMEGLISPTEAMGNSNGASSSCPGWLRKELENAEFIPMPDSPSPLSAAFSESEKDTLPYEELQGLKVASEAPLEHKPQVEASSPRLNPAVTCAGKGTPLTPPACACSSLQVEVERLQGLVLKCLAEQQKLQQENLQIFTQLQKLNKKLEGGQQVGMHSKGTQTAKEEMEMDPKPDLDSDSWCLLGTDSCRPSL

Chain of RAC-beta serine/threonine-protein kinase (Homo sapiens) (P31751 whole entry): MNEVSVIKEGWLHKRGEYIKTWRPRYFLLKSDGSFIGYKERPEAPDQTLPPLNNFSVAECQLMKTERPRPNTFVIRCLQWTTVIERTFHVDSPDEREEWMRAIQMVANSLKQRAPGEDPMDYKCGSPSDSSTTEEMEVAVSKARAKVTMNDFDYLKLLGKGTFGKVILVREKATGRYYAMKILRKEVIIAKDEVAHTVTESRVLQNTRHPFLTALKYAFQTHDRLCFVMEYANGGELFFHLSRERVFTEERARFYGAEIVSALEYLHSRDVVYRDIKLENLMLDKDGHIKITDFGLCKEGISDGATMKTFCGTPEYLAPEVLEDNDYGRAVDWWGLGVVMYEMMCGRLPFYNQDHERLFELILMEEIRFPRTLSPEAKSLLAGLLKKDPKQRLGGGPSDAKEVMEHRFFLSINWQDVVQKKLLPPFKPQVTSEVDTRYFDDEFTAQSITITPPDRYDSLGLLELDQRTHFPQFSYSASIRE
Chain of Serine/threonine-protein kinase PRP4 homolog (Homo sapiens) (Q13523 whole entry): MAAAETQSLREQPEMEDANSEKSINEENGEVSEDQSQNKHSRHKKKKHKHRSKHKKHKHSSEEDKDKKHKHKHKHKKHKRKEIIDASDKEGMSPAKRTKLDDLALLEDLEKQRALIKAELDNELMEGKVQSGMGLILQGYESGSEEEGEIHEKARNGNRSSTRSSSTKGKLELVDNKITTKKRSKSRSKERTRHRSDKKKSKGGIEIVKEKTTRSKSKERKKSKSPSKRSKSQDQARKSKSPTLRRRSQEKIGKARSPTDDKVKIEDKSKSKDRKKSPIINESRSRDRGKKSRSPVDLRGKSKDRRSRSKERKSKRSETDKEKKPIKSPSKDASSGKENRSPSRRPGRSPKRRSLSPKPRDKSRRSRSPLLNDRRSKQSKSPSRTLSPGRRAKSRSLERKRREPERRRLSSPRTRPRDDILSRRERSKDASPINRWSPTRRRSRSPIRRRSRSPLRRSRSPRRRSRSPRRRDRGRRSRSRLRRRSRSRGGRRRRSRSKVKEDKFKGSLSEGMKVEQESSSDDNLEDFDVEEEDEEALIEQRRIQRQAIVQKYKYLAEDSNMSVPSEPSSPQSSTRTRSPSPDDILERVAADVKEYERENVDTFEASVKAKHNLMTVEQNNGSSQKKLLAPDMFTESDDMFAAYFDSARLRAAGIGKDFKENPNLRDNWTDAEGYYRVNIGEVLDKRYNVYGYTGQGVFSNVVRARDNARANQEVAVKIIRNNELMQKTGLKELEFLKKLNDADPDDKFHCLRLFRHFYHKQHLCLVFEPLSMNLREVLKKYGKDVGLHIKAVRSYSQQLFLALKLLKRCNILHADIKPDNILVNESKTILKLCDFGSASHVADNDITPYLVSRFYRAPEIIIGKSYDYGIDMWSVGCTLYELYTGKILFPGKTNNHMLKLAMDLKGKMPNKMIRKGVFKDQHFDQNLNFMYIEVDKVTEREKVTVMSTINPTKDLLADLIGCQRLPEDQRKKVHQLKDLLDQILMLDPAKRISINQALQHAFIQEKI
Chain of Histamine H2 receptor (Homo sapiens) (P25021 whole entry): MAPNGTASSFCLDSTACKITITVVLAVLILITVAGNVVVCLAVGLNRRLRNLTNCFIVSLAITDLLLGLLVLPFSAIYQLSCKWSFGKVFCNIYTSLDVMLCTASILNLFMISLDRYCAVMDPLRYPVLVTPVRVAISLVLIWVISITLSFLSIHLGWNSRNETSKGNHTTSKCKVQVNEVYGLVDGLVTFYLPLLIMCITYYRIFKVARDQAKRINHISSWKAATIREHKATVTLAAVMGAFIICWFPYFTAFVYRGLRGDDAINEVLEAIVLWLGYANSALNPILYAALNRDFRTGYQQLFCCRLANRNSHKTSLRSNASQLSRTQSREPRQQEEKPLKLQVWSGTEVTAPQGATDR
Chain of Phosphatidylinositol 4-phosphate 5-kinase type-1 alpha (Homo sapiens) (Q99755 whole entry): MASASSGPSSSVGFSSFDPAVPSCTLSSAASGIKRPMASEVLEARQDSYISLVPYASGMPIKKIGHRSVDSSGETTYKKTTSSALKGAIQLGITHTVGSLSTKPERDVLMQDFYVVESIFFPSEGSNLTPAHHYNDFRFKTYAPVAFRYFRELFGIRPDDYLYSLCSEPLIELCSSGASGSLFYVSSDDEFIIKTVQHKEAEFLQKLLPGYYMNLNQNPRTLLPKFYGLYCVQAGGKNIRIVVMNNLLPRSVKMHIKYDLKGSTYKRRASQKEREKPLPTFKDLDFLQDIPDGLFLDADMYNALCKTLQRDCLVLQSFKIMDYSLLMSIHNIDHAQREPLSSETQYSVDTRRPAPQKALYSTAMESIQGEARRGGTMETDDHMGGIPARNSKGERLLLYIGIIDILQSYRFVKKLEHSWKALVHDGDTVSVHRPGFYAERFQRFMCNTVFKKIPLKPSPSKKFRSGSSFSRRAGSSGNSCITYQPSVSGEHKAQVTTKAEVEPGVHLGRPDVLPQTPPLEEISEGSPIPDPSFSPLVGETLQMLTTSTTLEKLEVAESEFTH
Chain of SRSF protein kinase 1 (Q96SB4 whole entry): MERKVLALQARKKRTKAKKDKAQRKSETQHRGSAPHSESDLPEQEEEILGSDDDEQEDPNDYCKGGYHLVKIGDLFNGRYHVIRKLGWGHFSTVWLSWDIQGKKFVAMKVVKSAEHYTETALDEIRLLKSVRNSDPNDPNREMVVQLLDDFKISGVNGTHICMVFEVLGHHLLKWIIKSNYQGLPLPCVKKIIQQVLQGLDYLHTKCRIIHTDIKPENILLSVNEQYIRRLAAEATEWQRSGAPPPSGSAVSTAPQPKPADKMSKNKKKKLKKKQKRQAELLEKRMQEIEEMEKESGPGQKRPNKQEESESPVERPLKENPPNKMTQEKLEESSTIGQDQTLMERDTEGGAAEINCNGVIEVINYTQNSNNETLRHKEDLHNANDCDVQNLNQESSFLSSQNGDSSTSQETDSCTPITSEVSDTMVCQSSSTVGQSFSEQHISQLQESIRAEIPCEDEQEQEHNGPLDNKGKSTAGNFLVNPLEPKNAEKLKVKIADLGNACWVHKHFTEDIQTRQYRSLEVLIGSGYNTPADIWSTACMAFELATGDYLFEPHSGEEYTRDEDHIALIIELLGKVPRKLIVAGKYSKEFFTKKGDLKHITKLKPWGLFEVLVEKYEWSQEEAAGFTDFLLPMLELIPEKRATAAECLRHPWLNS
Chain of E3 ubiquitin-protein ligase TRIM33 (Homo sapiens) (Q9UPN9 whole entry): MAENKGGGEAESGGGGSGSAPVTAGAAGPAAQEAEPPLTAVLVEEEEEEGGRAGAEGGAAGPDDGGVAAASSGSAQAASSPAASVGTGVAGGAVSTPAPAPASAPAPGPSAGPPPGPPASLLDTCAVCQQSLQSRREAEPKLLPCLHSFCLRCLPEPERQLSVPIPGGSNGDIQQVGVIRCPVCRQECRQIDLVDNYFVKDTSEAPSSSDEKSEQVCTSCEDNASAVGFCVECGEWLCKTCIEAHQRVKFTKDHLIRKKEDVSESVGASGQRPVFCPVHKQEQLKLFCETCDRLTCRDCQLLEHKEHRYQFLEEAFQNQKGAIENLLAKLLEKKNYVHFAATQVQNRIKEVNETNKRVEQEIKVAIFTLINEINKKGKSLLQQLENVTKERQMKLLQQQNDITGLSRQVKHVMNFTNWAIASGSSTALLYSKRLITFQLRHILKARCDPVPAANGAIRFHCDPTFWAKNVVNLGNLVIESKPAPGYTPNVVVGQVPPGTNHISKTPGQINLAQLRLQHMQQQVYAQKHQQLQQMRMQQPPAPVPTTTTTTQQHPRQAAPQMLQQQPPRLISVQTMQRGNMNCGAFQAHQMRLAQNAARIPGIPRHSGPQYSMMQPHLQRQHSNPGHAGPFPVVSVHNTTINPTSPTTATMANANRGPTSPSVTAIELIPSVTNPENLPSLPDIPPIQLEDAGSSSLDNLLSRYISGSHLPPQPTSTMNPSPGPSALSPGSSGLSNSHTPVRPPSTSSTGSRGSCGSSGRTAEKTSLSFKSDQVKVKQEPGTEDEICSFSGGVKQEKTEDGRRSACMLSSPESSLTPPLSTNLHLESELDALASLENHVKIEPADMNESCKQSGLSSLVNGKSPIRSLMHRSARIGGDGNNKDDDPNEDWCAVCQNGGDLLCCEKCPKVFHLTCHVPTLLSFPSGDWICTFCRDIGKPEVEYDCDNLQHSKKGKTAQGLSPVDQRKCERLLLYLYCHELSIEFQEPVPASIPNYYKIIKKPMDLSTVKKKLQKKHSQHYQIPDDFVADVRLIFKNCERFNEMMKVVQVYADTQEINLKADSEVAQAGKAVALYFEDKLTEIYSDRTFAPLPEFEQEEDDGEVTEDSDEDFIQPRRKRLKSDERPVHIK

With `CN(C)CCCOc1ccc(-c2cc(NCCCn3cccn3)nc(S(C)(=O)=O)n2)cc1` the dTM [1] was under 2 K.

Work on `Cn1cc(-n2cnc3c(NCc4nc5cc(Cl)c(Cl)cc5[nH]4)nc(N4CCOCC4)nc32)cn1` yielded a % of control (SRSF protein kinase 1) of 0.97% and a % of inhibition [2] of -7.27%.

For `Cc1cc(CN)cc(C)c1-c1ncn(C)c1-c1cncn1C`, the % activity ([3]; at 1 µM) was over 90% and the % activity ([3]; at 10 µM) was over 80%.

Compound `Cc1cc(C)cc([C@@H]2c3cc(C)ccc3NC(=O)CN2C(=O)c2ccc(Br)s2)c1` has a % of inhibition [4] of -18%.

Work on `Cc1cc(-c2ccnc(Nc3cnn(C)c3)n2)ccc1CNC(=O)N1CC(OC(C)C)C1` yielded a % of control [5] of 28%.

`C=CC(=O)Nc1cccc(C(=O)Nc2ccc(Nc3cc(-c4[nH]c(SC)nc4C)ccn3)cc2)c1` showed a % of control ([6]; at 1 µM) of 92% and a % of control ([6]; at 5 µM) of 78%.

`N#Cc1cccc(-c2c[nH]c3ncnc(N4CCOCC4)c23)c1` gave a % of control [7] of 92%.

With `CNC(=O)Nc1ccc(-c2nc(N3CC4CCC(C3)O4)c3cnn(C4CCC5(CC4)OCCO5)c3n2)cc1` the % of control [8] was 100%.
